{"source": "patent US20100092480A1", "about": "“MODULATORS OF PROTEIN PHOSPHATASE 2A” (priority 2006, published 2010)", "key": {"PP2A": {"biological_target": "PP2A (Homo sapiens, UniProt P67775)", "sequence (P67775 whole entry)": "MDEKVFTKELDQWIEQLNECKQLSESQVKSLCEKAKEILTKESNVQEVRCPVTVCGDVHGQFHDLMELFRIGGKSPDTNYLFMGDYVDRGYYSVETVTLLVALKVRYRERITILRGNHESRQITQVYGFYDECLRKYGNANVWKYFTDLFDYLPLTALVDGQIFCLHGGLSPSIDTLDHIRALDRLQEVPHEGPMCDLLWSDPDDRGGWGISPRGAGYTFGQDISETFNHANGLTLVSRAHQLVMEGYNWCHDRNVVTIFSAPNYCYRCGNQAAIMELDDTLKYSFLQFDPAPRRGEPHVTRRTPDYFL", "conditions": "cited from earlier work"}, "PP2A core": {"biological_target": "PP2A core (Homo sapiens, UniProt P67775)", "sequence (P67775 whole entry)": "as above", "sequence (P30153 whole entry, further chain)": "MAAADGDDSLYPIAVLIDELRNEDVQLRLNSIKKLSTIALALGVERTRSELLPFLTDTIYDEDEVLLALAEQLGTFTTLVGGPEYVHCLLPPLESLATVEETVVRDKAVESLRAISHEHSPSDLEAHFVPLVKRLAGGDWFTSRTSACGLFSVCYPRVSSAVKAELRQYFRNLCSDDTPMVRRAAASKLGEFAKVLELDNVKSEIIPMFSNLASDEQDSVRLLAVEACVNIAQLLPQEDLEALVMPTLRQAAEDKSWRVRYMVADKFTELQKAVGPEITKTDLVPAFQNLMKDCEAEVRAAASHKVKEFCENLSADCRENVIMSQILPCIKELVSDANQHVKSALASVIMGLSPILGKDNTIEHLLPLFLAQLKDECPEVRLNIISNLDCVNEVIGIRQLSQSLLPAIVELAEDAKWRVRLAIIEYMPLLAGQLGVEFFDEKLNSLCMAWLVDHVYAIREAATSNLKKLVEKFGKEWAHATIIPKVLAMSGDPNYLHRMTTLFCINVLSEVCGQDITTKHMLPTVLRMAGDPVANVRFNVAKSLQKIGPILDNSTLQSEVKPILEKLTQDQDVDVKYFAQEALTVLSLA", "type": "biochemical", "conditions": "stoichiometric amounts of inhibitor"}}, "note": "Starred links: 1 amine or outer side, 2 acyl side, 3 side chain; linkers in the order of their positions; H or OH if unused. Positions of bridges follow the written chain, without caps; N, C: chain ends. Non-standard residues stand in square brackets, D forms with d. Residues, ends and D or L forms follow the SMILES beside them. Adda = CO[C@@H](Cc1ccccc1)[C@@H](C)/C=C(C)/C=C/[C@H](N[*:1])[C@H](C)C(=O)[*:2]; dAsp(3S-Me) = C[C@H](C(=O)[*:3])[C@@H](N[*:1])C(=O)[*:2]; d(γGlu) = O=C(O)[C@@H](CCC(=O)[*:2])N[*:1]; NMeDha = C=C(NC)C(=O)O", "data": [{"smiles": "C=C1C(=O)N[C@H](C)C(=O)N[C@@H](CC(C)C)C(=O)N[C@@H](C(=O)O)[C@H](C)C(=O)N[C@@H](CCCNC(=N)N)C(=O)N[C@@H](/C=C/C(C)=C/[C@H](C)[C@H](Cc2ccccc2)OC)[C@H](C)C(=O)N[C@@H](C(=O)O)CCC(=O)N1C", "note": "[MCLR, microcystin-LR] (R[Adda][d(γGlu)][NMeDha][dA]L[dAsp(3S-Me)]-OH; lactam N-7)", "values": [{"measurement": "inhibition of the activity of PP2A", "setting": "PP2A", "result": "potently inhibit"}]}, {"smiles": "C=C1[C@@H](O)[C@@H]2O[C@]3(CC[C@H](/C=C/[C@@H](C)[C@@H]4CC(C)=C[C@@]5(O[C@H](C[C@@](C)(O)C(=O)O)CC[C@H]5O)O4)O3)CC[C@H]2O[C@@H]1[C@@H](O)C[C@H](C)[C@H]1O[C@@]2(CCCCO2)CC[C@H]1C", "note": "[OA, okadaic acid]", "values": [{"measurement": "inhibition of phosphatase activity of the assembled, purified PP2A core", "setting": "PP2A core", "result": "efficiently inhibited"}, {"measurement": "IC50", "setting": "PP2A; PP2A, read-out: inhibitory constant (IC50)", "result": "~0.1", "unit": "nM"}]}]}
